{"source": "patent EP0279150A1", "about": "“5-Oxy-substituted-3-aminochroman compounds, processes for their preparation, pharmaceutical compositions containing them and methods of treatment therewith” (ASTRA LAKEMEDEL AKTIEBOLAG, priority 1986, dated 1988)", "key": {"5-HT₁": {"molecular_target": "5-HT₁", "assay": "Receptor binding assay, ³H-5-HT", "details": "³H-5-HT (5 nM) binding, rat brain (striatal) membranes, 10 minutes at 37°C; read-out: IC₅₀", "experimental": "(§1) The method of Peroulka & Snyder (Mol.Pharmacol. 16, 687-699, 1979) was used. Male Sprague-Dawley rats weighing 150-200 g were decapitated, and their brains were rapidly removed. The striata were dissected, pooled and homogenized in 50 mM Tris-HCl buffer (pH 7.6). The membrane fraction was collected by centrifugation (48 000 g for ten minutes), washed once with the buffer, and resuspended in 50 mM Tris HCl (pH 7.6) containing 0.1% ascorbic acid, 10 mM paragyline, 120 mM NaCl, 5 mM KCl, 2 mM CaCl₂ and 1 mM MgCl₂. The suspension was preincubated at 37°C for 10 minutes and then kept on ice until use.\n(§2) The assays have been carried out using a cell harvester equipment. The incubations were made in quadruplicate, each well containing membrane suspension, ³H-spiperone (0.4 nM) or ³H-5-HT (5 nM) and the test compound in a final volume of 0.5 ml. After incubation for 10 minutes at 37°C, the contents of the wells were rapidly filtered and washed on Whatman GF/B filters using the Cell harvester. The specific binding was defined as the difference of radioligand bound in the presence and in the absence of a specific displacer (d-LSD, lµM and 5-HT, 10 µM for ³4-spiperone and ³H-5-HT, respectively). The test results are expressed as IC₅₀. The IC₅₀ value is given in nM, indicates the concentration of the test substance which reduces the amount of specifically bound radioligand by 50%.."}, "Dopamine-D₂": {"molecular_target": "T1, Dopamine-D₂ (Rattus norvegicus, UniProt P61169)", "T1 construct": "The striata were dissected, pooled and homogenized in 50 mM Tris-HCl buffer (pH 7.6); from tissue; host or cells: rat striatum membrane fraction", "T1 sequence (P61169 whole entry)": "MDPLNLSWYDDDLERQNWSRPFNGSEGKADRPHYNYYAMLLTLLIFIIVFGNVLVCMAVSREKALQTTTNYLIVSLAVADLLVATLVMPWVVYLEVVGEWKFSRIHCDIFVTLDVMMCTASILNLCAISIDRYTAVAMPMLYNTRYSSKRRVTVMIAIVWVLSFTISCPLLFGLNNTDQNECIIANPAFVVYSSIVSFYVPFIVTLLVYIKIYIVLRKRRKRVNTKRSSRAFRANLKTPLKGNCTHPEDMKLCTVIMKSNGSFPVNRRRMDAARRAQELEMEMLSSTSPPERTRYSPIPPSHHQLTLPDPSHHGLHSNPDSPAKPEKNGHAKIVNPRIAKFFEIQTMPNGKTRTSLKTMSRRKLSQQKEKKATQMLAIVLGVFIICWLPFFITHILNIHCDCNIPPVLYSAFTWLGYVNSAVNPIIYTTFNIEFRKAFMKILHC", "assay": "Receptor binding assay, ³H-spiroperidol", "details": "³H-spiroperidol binding, rat brain membranes", "experimental": "as §1, §2"}, "5-HT₂": {"molecular_target": "T2, 5-HT₂ (Rattus norvegicus, UniProt P14842)", "T2 construct": "from tissue", "T2 sequence (P14842 whole entry)": "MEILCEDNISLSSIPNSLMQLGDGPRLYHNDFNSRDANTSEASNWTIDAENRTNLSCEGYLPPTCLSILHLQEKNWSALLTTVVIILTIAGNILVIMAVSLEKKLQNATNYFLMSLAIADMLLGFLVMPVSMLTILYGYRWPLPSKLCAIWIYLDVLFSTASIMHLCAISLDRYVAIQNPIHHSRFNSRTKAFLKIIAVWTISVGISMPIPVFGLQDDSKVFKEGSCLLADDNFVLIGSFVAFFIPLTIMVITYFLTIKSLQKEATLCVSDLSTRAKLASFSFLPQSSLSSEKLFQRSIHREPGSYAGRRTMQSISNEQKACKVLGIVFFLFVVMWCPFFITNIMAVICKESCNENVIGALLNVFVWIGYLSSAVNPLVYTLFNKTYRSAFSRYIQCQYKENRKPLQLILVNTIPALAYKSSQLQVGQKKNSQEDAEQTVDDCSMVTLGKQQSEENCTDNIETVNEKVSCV", "assay": "Receptor binding assay, ³H-Ketanserin", "details": "³H-Ketanserin binding, rat brain membranes"}}, "data": [{"smiles": "CCCN(CCC)C1COc2cccc(O)c2C1", "note": "(stereo not drawn) [3-di-propylamino-5-hydroxychroman, 3-dipropylamino-5-hydroxychroman]", "values": [{"measurement": "IC50", "setting": "5-HT₁", "result": 0.083, "unit": "µM"}, {"measurement": "activity in ³H-spiroperidol (Dopamine-D₂) receptor binding", "setting": "Dopamine-D₂", "result": "inactive"}, {"measurement": "activity in ³H-Ketanserin (5-HT₂) receptor binding", "setting": "5-HT₂", "result": "inactive"}]}]}
